Values of other authors in PMC12141164, “Phase-1 study of vamotinib (PF-114), a 3rd generation BCR::ABL1 tyrosine kinase-inhibitor, in chronic myeloid leukaemia” (Annals of Hematology, 2025).

Tests used:
EPHA7 = conditions: kinase inhibition profiles; cited from earlier work
[1] = tested on: BaF3 cells expressing BCR::ABL1^T315I; set-up: method as in PMID 25394714; conditions: read-out: IC50 of cytotoxicity; cited from earlier work
animals = conditions: cited from earlier work
ZAK = conditions: kinase inhibition profiles; cited from earlier work
dogs = tested on: dogs; set-up: method as in PMID 25394714; conditions: pre-clinical toxicology; cited from earlier work
TIE2 = conditions: kinase inhibition profiles; cited from earlier work
TAK1 = conditions: kinase inhibition profiles; cited from earlier work
rats = tested on: rats; set-up: method as in PMID 25394714; conditions: pre-clinical toxicology; cited from earlier work

Cc1ccc(C(=O)Nc2ccc(CN3CCN(C)CC3)c(C(F)(F)F)c2)cc1C#Cc1nnc2ccccn12 [vamotinib]
inhibition of EPHA7 (EPHA7): not | IC50 [1]: 75 nM | arterial occlusive events (animals; pre-clinical studies in animals): no arterial occlusive events | cardio-vascular findings (animals; pre-clinical toxicology studies): No cardio-vascular findings | inhibition of ZAK (ZAK): not | Rash (dogs): Rash was seen | inhibition of TIE2 (TIE2): not | inhibition of TAK1 (TAK1): not | Rash (rats): Rash was seen
